Experimental findings from ChEMBL document CHEMBL5506036, “Exploring the Structural Attributes of Yoda1 for the Development of New-Generation Piezo1 Agonist Yaddle1 as a Vaccine Adjuvant Targeting Optimal T Cell Activation” (J Med Chem, 2024) are described below.

The target of data set [1] is T1, Piezo-type mechanosensitive ion channel component 1 (Homo sapiens, UniProt Q92508). Put plainly: Agonist activity at human PIEZO1 overexpressing HEK293-A cells co-expressing mCherry-piezo1 assessed as fold change in calcium influx at 10 uM by fluo-3 based real-time flow cytometric analysis. Format: cell-based. For orientation: In flow cytometry, cells or beads pass a laser one at a time.
T1 sequence (Q92508 whole entry): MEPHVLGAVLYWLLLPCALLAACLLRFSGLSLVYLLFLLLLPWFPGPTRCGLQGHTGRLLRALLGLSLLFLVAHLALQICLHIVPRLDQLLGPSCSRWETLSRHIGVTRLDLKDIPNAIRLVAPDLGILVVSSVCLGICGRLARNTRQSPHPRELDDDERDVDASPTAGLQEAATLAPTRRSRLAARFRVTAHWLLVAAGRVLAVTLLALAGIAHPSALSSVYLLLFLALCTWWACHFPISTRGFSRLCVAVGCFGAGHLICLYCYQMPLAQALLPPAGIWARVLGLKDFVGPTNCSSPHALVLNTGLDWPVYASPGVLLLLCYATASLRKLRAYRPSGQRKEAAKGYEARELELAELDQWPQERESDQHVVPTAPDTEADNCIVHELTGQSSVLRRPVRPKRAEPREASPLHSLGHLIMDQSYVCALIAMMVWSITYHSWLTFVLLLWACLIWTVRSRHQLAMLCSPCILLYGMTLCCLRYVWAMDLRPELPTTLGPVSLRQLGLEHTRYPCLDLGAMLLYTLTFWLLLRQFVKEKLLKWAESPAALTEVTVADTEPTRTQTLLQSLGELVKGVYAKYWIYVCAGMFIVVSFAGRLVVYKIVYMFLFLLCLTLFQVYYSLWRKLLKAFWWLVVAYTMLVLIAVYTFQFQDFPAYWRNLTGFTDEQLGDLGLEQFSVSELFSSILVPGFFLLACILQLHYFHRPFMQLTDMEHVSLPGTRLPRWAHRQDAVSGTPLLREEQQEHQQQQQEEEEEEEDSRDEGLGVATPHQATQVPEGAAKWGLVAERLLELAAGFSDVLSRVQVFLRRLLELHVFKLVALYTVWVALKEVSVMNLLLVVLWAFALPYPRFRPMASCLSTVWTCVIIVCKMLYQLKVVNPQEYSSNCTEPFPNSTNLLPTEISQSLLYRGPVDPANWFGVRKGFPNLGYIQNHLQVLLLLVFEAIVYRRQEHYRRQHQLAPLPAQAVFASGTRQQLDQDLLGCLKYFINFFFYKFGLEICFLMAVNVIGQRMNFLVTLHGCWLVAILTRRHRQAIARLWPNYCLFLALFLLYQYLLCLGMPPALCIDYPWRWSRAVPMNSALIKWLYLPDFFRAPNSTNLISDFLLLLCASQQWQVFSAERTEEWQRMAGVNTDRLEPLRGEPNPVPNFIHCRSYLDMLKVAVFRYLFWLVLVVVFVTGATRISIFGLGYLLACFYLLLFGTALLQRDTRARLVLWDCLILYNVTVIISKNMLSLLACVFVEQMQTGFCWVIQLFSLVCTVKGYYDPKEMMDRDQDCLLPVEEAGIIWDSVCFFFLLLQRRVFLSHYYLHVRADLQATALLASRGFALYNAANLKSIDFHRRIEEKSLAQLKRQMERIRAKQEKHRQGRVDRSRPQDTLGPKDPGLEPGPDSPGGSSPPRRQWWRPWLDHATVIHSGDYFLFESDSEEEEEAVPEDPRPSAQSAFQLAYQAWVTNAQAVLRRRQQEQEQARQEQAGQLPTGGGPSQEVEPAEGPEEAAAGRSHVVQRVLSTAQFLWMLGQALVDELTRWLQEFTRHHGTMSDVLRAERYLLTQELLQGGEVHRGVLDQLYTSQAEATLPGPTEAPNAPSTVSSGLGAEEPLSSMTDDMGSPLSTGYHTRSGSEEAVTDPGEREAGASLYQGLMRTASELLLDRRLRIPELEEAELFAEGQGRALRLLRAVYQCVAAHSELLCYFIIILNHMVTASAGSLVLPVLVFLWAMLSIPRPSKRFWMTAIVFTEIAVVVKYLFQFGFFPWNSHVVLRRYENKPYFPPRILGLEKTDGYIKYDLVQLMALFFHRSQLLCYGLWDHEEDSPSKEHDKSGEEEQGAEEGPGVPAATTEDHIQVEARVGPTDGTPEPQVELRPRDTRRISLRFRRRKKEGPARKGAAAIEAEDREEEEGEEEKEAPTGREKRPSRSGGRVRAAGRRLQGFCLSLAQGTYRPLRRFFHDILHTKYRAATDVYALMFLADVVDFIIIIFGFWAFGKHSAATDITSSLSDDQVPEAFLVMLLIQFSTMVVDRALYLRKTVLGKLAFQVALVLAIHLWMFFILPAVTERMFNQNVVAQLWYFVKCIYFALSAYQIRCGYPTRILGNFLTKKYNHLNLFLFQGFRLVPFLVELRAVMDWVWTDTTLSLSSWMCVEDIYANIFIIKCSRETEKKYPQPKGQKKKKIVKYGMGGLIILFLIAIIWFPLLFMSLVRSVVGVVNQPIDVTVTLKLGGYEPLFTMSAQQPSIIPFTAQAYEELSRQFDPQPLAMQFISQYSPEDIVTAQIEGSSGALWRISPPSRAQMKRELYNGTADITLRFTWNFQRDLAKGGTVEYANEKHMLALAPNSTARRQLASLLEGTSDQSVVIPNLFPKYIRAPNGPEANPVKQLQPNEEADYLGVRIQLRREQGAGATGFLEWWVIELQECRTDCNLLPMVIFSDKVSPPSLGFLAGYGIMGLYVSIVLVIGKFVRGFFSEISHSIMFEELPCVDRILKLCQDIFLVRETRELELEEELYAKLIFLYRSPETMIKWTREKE

Data set [2] addresses T1, Piezo-type mechanosensitive ion channel component 1. The data set can be described thus: Agonist activity at human PIEZO1 overexpressing HEK293-A cells co-expressing mCherry-piezo1 assessed as fold change in calcium influx at 15 uM by fluo-3 based real-time flow cytometric analysis. Type of data set: cell-based.
Data set [3] shares this target. Put plainly: Agonist activity at human PIEZO1 overexpressing HEK293-A cells co-expressing mCherry-piezo1 assessed as fold change in calcium influx at 5 uM by fluo-3 based real-time flow cytometric analysis. Type of data set: cell-based.
Data set [4] has the same target. The data set can be described thus: Agonist activity at PIEZO1 in human CD4+ T cell assessed as intracellular calcium influx measured for 30 mins by flow cytometry analysis. Format: cell-based.
Data set [5] has the same target. Put plainly: Agonist activity at human PIEZO1 overexpressing HEK293-A cells co-expressing mCherry-piezo1 assessed as fold change in calcium influx at 0.5 uM by fluo-3 based real-time flow cytometric analysis. Type of data set: cell-based.
Data set [6] has the same target. The data set can be described thus: Agonist activity at human PIEZO1 overexpressing HEK293-A cells co-expressing mCherry-piezo1 assessed as induction of calcium influx by measuring maximum efficacy in fold change by fluo-3 based real-time flow cytometric analysis. Format: cell-based. To be noted: filed as agonist.
Data set [7] shares this target. Put plainly: Agonist activity at human PIEZO1 overexpressing HEK293-A cells co-expressing mCherry-piezo1 assessed as fold change in calcium influx at 20 uM by fluo-3 based real-time flow cytometric analysis. Type of data set: cell-based.
The target is the same in data set [8]. The data set can be described thus: Agonist activity at human PIEZO1 overexpressing HEK293-A cells co-expressing mCherry-piezo1 assessed as induction of calcium influx by fluo-3 based real-time flow cytometric analysis. Format: cell-based.
For data set [9] the target is unchanged. Put plainly: Agonist activity at human PIEZO1 overexpressing HEK293-A cells co-expressing mCherry-piezo1 assessed as fold change in calcium influx at 0.1 uM by fluo-3 based real-time flow cytometric analysis. Format: cell-based.
Data set [10] has the same target. Put plainly: Agonist activity at human PIEZO1 overexpressing HEK293-A cells co-expressing mCherry-piezo1 assessed as fold change in calcium influx at 1 uM by fluo-3 based real-time flow cytometric analysis. Format: cell-based.
Data set [11] has the same target. The data set can be described thus: Agonist activity at PIEZO1 in human CD4+ T cell assessed as fold increase in intracellular calcium influx measured for 30 mins by flow cytometry analysis. Type of data set: cell-based.
The nature of data set [12]: Cytotoxicity against human PBMC cells assessed as decrease in cell viability at 20 uM incubated for 24 hrs by MTT assay. Type of data set: toxicity, cell-based. (Formazan colour is commonly taken as a measure of viable cells.)
Data set [13] can be described thus: Kinetic aqueous solubility of compound in PBS at pH 7.4 measured after 24 hrs by HPLC-UV analysis. Type of data set: physicochemical. To be noted: read-out: Kinetic_solubility.
Data set [14] in a line: Cytotoxicity against human PBMC cells assessed as decrease in cell viability at 0.1 to 5 uM incubated for 6 hrs by MTT assay. Format: toxicity, cell-based. The conditions noted are these: dose 0.1-5 µM.
The target in data set [15] is T1, Piezo-type mechanosensitive ion channel component 1. The data set can be described thus: Agonist activity at human PIEZO1 overexpressing HEK293-A cells co-expressing mCherry-piezo1 assessed as fold change in calcium influx at 25 uM by fluo-3 based real-time flow cytometric analysis. Type of data set: cell-based.

Molecules are shown by their SMILES. In brackets after ≈: the same amount, converted by molar mass. Activity calls are given as the source filed them. The rule behind the calls is not given here.

As a reminder, the EC50 is the midpoint of the concentration-response curve.

Regarding `FC(F)(F)c1ccc(C(F)(F)F)c(CSc2nnc(-c3cnccn3)o2)c1`, the fold change (FC) is more than 1.2 in data set [1]; more than 1.2 in data set [2]; more than 1.2 in data set [3]; less than 1.2 in [5]; 1.68 in [6]; more than 1.2 in [7]. Also, the fold change (FC) in data set [9] was less than 1.2; in data set [10] it was more than 1.2. The result in data set [4] was inactive. The 50% effective concentration (EC50) in data set [8] amounted to 1000 nM.
For `FC(F)(F)c1cccc(Cl)c1CSc1nnc(-c2cnccn2)o1`, the fold change (FC) is more than 1.2 in [1]; more than 2 in [11]; more than 1.2 in data set [2]; more than 1.2 in data set [3]; more than 1.2 in [5]; 2.6 in [6]. Moreover, the fold change (FC) in data set [7], in data set [9] and in [10] was more than 1.2 in each case. For the same compound, the Activity entry in [12] and in data set [14] was “Non-Toxic” in each case. The solubility kinetic at 24 h in data set [13] turned out to be 26.7 µM (≈ 9.96 µg/mL). In data set [8], the EC50 came out at 400 nM.
`FC(F)(F)c1ccccc1CSc1nnc(-c2cnccn2)o1`: the fold change (FC) in [1] was more than 1.2; in [2] it was more than 1.2; in data set [3] it was less than 1.2; in data set [5], less than 1.2; in [6] it was 1.35; in data set [7], more than 1.2. Besides, the fold change (FC) in [9] and in data set [10] was less than 1.2 each time. The Activity entry in [12] and in [14] was “Non-Toxic” in each case. Besides, the outcome in data set [4] was inactive. The EC50 in data set [8] worked out at 2060 nM.
On to `Clc1cccc(Cl)c1CSc1nnc(-c2cnccn2)[nH]1`, for which the fold change (FC) in data set [2] and in [7] was less than 1.2 in each case. In addition, the outcome in data set [15] was inactive.
In the case of `Clc1ccccc1CSc1nnc(-c2cnccn2)[nH]1`, the fold change (FC) in [2] and in data set [7] was less than 1.2 throughout. In data set [15], the outcome was inactive.
